{
  "source": "patent US20050081267A1",
  "about": "“Novel genes for conditional cell ablation” (Bayer Bioscience N.V., priority 2001, published 2005)",
  "key": {"[1]": {"system": "flower buds of the transgenic lines (Tobacco, Nicotiana tabacum) expressing ArgJ deacetylase under TA29 promoter", "experiment": "Flower bud treatment to induce male-sterile flowers in TA29-ArgJ transgenic tobacco", "assay_type": "in vivo", "conditions": "10 μl of 5 mg/ml solution (0.1% Genapol)", "text": "The ArgJ coding sequence was recloned into the binary vector pROK1 under control of the TA29 promoter of tobacco. The resulting plasmid pTA29ARG comprising the TA29 promoter, ArgJ coding sequence and 35S terminator was transformed in Agrobacterium tumefaciens (strain ATHV) using standard methods. Tobacco (Nicotiana tabacurn) leaf disks were transformed with the recombinant Agrobacteria according to the method of Horsch et al. (1985, above) and selected on kanamycin medium.\nTo investigate tapetum-specific expression of the ArgJ deacetylase, flower buds of the transgenic lines were treated with N-acetyl-PPT to induce male-sterile flowers.\nIn each case only one side of the inflorescence ([…] of the developing flower bud) was treated with N-acetyl PPT, in order to eliminate possible contamination with natural male-sterility phenomena. Treatment was carried out on flower buds of 2 to 4 mm large. Transgenic and control plants were treated with 10 μl of 5 mg/ml N-acetyl PPT solution (0.1% Genapol as wetting agent). After the blooming of the buds (about 9-11 days after conclusion of the treatment) the plants were investigated for the occurrence of male-sterile flowers."}, "[2]": {"system": "leaves of the transgenic plants (Tobacco, Nicotiana tabacum) expressing ArgJ coding sequence under 35S promoter", "experiment": "Drop experiment on leaves of 35S-ArgJ transgenic tobacco plants", "assay_type": "in vivo", "conditions": "5 μl drops; dose of 4 mg/ml or 1 mg/ml; apparent 4 to 5 days after treatment; seven independent p35SARG transformants", "text": "The ArgJ coding sequence was recloned into the binary vector pROK1 under control of the Cauliflower Mosaic Virus 35S promoter sequence. The resulting plasmid p35SARG comprising the 35S promoter, ArgJ coding sequence and 35S terminator was transformed in Agrobacterium tumefaciens (strain ATHV) using standard methods. Tobacco (Nicotiana tabacum) leaf disks were transformed with the recombinant Agrobacteria according to the method of Horsch et al. (1985, Science 227:1229-1231) and selected on kanamycin medium. Seven independent transformants were regenerated. In a drop experiment, the leaves of the transgenic plants (and a number of control plants) were treated with 5 μl each of the following concentrations of N-acetyl- D, L-PPT: 4 mg/ml (=15 mM), 1 mg/ml (=3.75 mM), 0.4 mg/ml (=1.5 mM), 0.1 mg/ml (=0.38 mM). The treatment sites were examined for lightening or necrosis formation."}},
  "data": [
    {"smiles": "CC(=O)NC(CCP(C)(=O)O)C(=O)O", "note": "[N-acetyl- D, L-PPT, N-acetyl-phosphinothricin]", "values": [
      {"measurement": "occurrence of male-sterile flowers, control or wild-type tobacco flowers", "setting": "[1]; control and wild-type plants", "result": "no reaction was seen"},
      {"measurement": "occurrence of male-sterile flowers from drop-treated flowerbuds, transgenic plants", "setting": "[1]; flower buds 2 to 4 mm, examined about 9-11 days after treatment, pTA29ARG transgenic plants", "result": "In three out of seven transgenic plants, male-sterile flowers developed"},
      {"measurement": "lightening or necrosis formation at treatment sites (leaf damage)", "setting": "[2]", "result": "Four plants showed clearly visible leaf damage"}
    ]}
  ]
}
